How the values were obtained:
Test in all cases: relative viability (nuclei count vs DMSO), 5 days (fraction); higher = more cells survive
[1] = compound: COc1ncc(-c2ccc3nccc(-c4ccnnc4)c3c2)cc1NS(=O)(=O)c1ccc(F)cc1F [Omipalisib] + CC(=O)Nc1cccc(-n2c(=O)n(C3CC3)c(=O)c3c(Nc4ccc(I)cc4F)n(C)c(=O)c(C)c32)c1 [Trametinib] (partner 0.02 µM)
Method in brief: (§1)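 Relative viability equals treated-well nuclei counts divided by vehicle-well nuclei counts. Counts came from 4× images of lung cancer cell lines grown in 1536-well plates for 5 days after pin-tool dosing on the day after seeding. Dosing used one drug alone or a fixed anchor-drug dose plus five library-drug doses (not always all listed) in √10 steps, and values are medians of duplicate plates.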

[2] = compound: COc1ncc(-c2ccc3nccc(-c4ccnnc4)c3c2)cc1NS(=O)(=O)c1ccc(F)cc1F [Omipalisib] + CC(C)C[C@H](NC(=O)[C@H](Cc1ccccc1)NC(=O)c1cnccn1)B(O)O [Bortezomib] (partner 0.002 µM)
Method in brief: as §1

[3] = compound: COc1ncc(-c2ccc3nccc(-c4ccnnc4)c3c2)cc1NS(=O)(=O)c1ccc(F)cc1F [Omipalisib] + COc1cc2c(Oc3ccc(NC(=O)C4(C(=O)Nc5ccc(F)cc5)CC4)cc3F)ccnc2cc1OCCCN1CCOCC1 [Foretinib] (partner 0.25 µM)
Method in brief: as §1

[4] = compound: COc1ncc(-c2ccc3nccc(-c4ccnnc4)c3c2)cc1NS(=O)(=O)c1ccc(F)cc1F [Omipalisib] + COc1cccc2cc(-c3nc([C@H]4CC[C@H](C(=O)O)CC4)n4ncnc(N)c34)[nH]c12 [OSI-027] (partner 0.5 µM)
Method in brief: as §1

[5] = compound: COc1ncc(-c2ccc3nccc(-c4ccnnc4)c3c2)cc1NS(=O)(=O)c1ccc(F)cc1F [Omipalisib] + CS(=O)(=O)CCNCc1ccc(-c2ccc3ncnc(Nc4ccc(OCc5cccc(F)c5)c(Cl)c4)c3c2)o1 [Lapatinib] (partner 2 µM)
Method in brief: as §1

[6] = compound: COc1ncc(-c2ccc3nccc(-c4ccnnc4)c3c2)cc1NS(=O)(=O)c1ccc(F)cc1F [Omipalisib] + Cc1nc(NC(=O)N2CCC[C@H]2C(N)=O)sc1-c1ccnc(C(C)(C)C(F)(F)F)c1 [Alpelisib] (partner 2 µM)
Method in brief: as §1

| Cell Line | relative viability ([1]; first compound 0.0003 µM) | relative viability ([1]; first compound 0.003 µM) | relative viability ([1]; first compound 0.03 µM) | relative viability ([2]; first compound 0.0003 µM) | relative viability ([2]; first compound 0.003 µM) | relative viability ([2]; first compound 0.03 µM) | relative viability ([3]; first compound 0.0003 µM) | relative viability ([3]; first compound 0.003 µM) | relative viability ([3]; first compound 0.03 µM) | relative viability ([4]; first compound 0.0003 µM) | relative viability ([4]; first compound 0.003 µM) | relative viability ([4]; first compound 0.03 µM) | relative viability ([5]; first compound 0.0003 µM) | relative viability ([5]; first compound 0.003 µM) | relative viability ([5]; first compound 0.03 µM) | relative viability ([6]; first compound 0.0003 µM) | relative viability ([6]; first compound 0.003 µM) | relative viability ([6]; first compound 0.03 µM) |
| --- | --- | --- | --- | --- | --- | --- | --- | --- | --- | --- | --- | --- | --- | --- | --- | --- | --- | --- |
| SW 1573 | 0.441 | 0.373 | 0.226 | 0.885 | 0.818 | 0.411 | 0.693 | 0.595 | 0.401 | 0.397 | 0.371 | 0.225 | 0.905 | 0.786 | 0.638 | 0.642 | 0.511 | 0.43 |
| NCI-H596 | 0.899 | 0.494 | 0.299 | 1.04 | 0.691 | 0.386 | 0.559 | 0.485 | 0.304 | 0.726 | 0.352 | 0.309 | 0.972 | 0.833 | 0.421 | 0.491 | 0.363 | 0.395 |
| NCI-H2342 | 0.732 | 0.583 | 0.449 |  |  |  | 0.816 | 0.688 | 0.453 | 0.569 | 0.516 | 0.467 |  |  |  |  |  |  |
| NCI-H358 | 0.136 | 0.115 | 0.107 |  |  |  | 0.626 | 0.591 | 0.371 | 0.595 | 0.473 | 0.16 | 0.388 | 0.367 | 0.325 | 0.963 | 0.594 | 0.524 |
| ABC-1 |  |  |  | 0.324 | 0.299 | 0.246 | 1.05 | 0.824 | 0.561 | 0.518 | 0.382 | 0.283 | 0.994 | 1.02 | 0.769 | 0.734 | 0.879 | 0.677 |
| EMC-BAC-2 | 0.569 | 0.571 | 0.436 | 0.968 | 0.862 | 0.747 | 0.91 | 0.637 | 0.482 | 0.347 | 0.266 | 0.239 | 0.726 | 0.611 | 0.608 | 0.759 | 0.663 | 0.505 |
| NCI-H1666 | 0.872 | 0.592 | 0.61 | 0.749 | 0.473 | 0.333 | 0.92 | 0.819 | 0.629 | 0.758 | 0.621 | 0.609 | 0.502 | 0.298 | 0.24 | 0.968 | 0.718 | 0.509 |
| NCI-H661 | 0.605 | 0.454 | 0.409 | 0.69 | 0.595 | 0.314 | 1.06 | 0.999 | 0.783 | 0.661 | 0.582 | 0.344 | 0.366 | 0.294 | 0.196 | 0.804 | 0.612 | 0.478 |
| NCI-H2126 | 0.487 | 0.397 | 0.327 | 1.06 | 0.895 | 0.734 | 1.01 | 0.718 | 0.342 | 0.71 | 0.488 | 0.411 | 0.759 | 0.46 | 0.374 | 0.696 | 0.583 | 0.474 |
| NCI-H1651 | 0.712 | 0.711 | 0.535 | 0.872 | 0.86 | 0.747 | 0.664 | 0.497 | 0.489 | 0.55 | 0.632 | 0.482 | 0.538 | 0.65 | 0.44 | 0.915 | 0.847 | 0.69 |
| H3255 | 0.56 | 0.421 | 0.277 | 0.803 | 0.588 | 0.571 | 0.731 | 0.669 | 0.494 | 0.546 | 0.45 | 0.299 | 0.219 | 0.193 | 0.203 | 0.714 | 0.606 | 0.444 |
| HOP-62 | 0.372 | 0.248 | 0.198 | 0.803 | 0.617 | 0.625 | 1.09 | 1.1 | 0.946 | 0.93 | 0.56 | 0.576 | 0.946 | 0.901 | 0.702 | 0.911 | 0.926 | 0.666 |
| NCI-H441 | 0.474 | 0.232 | 0.184 | 0.418 | 0.362 | 0.259 | 0.761 | 0.657 | 0.434 | 0.642 | 0.35 | 0.26 |  |  |  | 0.585 | 0.588 | 0.441 |
| SK-MES-1 | 0.512 | 0.419 | 0.285 |  |  |  | 0.73 | 0.461 | 0.344 | 0.508 | 0.252 | 0.29 | 0.447 | 0.308 | 0.364 | 0.847 | 0.66 | 0.458 |
| EPLC-272H | 0.275 | 0.256 | 0.14 | 1.08 | 0.732 | 0.611 | 0.574 | 0.388 | 0.196 | 0.286 | 0.29 | 0.217 | 0.908 | 0.535 | 0.562 | 0.883 | 0.794 | 0.477 |
| NCI-H1915 | 0.273 | 0.192 | 0.201 | 1.02 | 0.978 | 0.97 | 1.05 | 1.08 | 0.983 | 0.618 | 0.473 | 0.574 | 0.957 | 0.945 | 1 | 0.994 | 1.07 | 1.03 |
| NCI-H520 | 0.576 | 0.314 | 0.172 | 0.465 | 0.254 | 0.171 | 0.742 | 0.441 | 0.226 | 0.235 | 0.214 | 0.203 | 0.778 | 0.581 | 0.22 | 0.802 | 0.608 | 0.292 |
| NCI-H2228 | 0.505 | 0.187 | 0.173 | 0.905 | 0.577 | 0.404 | 0.957 | 0.74 | 0.25 | 0.506 | 0.19 | 0.139 | 0.993 | 0.697 | 0.291 | 0.764 | 0.657 | 0.251 |

Reference: the supplement of paper PMC10307832
